The subject of this series is porcine lenses. The text has this:
To analyze the efficacy and the biocompatibility of the compositions produced as described above, an ex viva analysis was undertaken in which the compositions were applied to eye lenses ex vivo. In these experiments, harvested porcine lenses were utilized.
Upon establishing the culturing conditions for the lenses, hyperoxic conditions were created and used to test the efficacy of the gelled compositions in protecting against oxidative damage and cataract formation. Briefly, in these experiments, two methods were used to test the efficacy of the compositions in preventing oxidative lens damage. Initially, oxidative damage with superoxide radicals generated by the addition of hydrogen peroxide into the lens culture medium was employed.

Like-named read-outs stand apart in the source and are kept apart here.

As for `OO` [H2O2, hydrogen peroxide], for the setting “0.3 mM H2O2”, the “day lens clarity started to be affected” value was found to be 9 days and the “lens area opacified by day 14” value was found to be 40%. Also, under “0.4 mM H2O2”, the “day lens opacity started” value was 5 days and the “lens area covered by opacity by day 14” value was 60%. For the same molecule, under “0.5 mM H2O2”, the “day lens opacity started” value turned out to be 3 days and the “lens opacity on day 14” value is reported as 90%. Further, where the note is “1 mM H2O2”, the “extent of cataract by day 5” value is on record as “total cataract”. In addition, the “time lens opacity first appeared” value (1 mM H2O2 in lens culture medium) worked out at 24 h. Also, the lens opacification result (H2O2 concentrations below 0.3 mM, up to 28 days of ex vivo culturing) was “did not appear to cause any lens opacification”.
